Assay results reported in the SangsterLogP compilation.

SMILES	logP
CCOc1ccccc1C=Cc1ccc2c(Cl)cc(Cl)c(O)c2n1	6.28
Oc1ccc(C=Cc2ccc3c(Cl)cc(Cl)c(O)c3n2)c(O)c1	5.17
Oc1c(Cl)cc(Cl)c2ccc(C=Cc3ccccc3Cl)nc12	6.49
Oc1cc(O)cc(C=Cc2ccc3c(Cl)cc(Cl)c(O)c3n2)c1	5.44
Oc1c(Cl)cc(Cl)c2ccc(C=Cc3ccc(C=Cc4ccc5c(Cl)cc(Cl)c(O)c5n4)cc3)nc12	9.69
Oc1ccc(C=Cc2ccc3c(Cl)cc(Cl)c(O)c3n2)cc1O	5.55
CCOc1ccc(C=Cc2ccc3c(Cl)cc(Cl)c(O)c3n2)cc1	6.25

Next, values leading:

logP	SMILES
4.75	CCOc1ccc(C=Cc2ccc3cccc(O)c3n2)cc1
4.48	Oc1ccccc1C=Cc1ccc2ccccc2n1
3.67	Oc1ccc(C=Cc2ccc3cccc(O)c3n2)c(O)c1
5.72	Oc1ccc(C=Cc2ccc3c(Cl)cc(Cl)c(O)c3n2)cc1
4.99	Oc1cccc2ccc(C=Cc3ccccc3Cl)nc12
5.35	Oc1ccccc1C=Cc1ccc2c(Cl)cc(Cl)c(O)c2n1
4.8	CCOc1ccccc1C=Cc1ccc2cccc(O)c2n1
5.69	Clc1ccccc1C=Cc1ccc2cccc(Cl)c2n1
4.18	Oc1cccc(C=Cc2ccc3cccc(O)c3n2)c1
